One data set deals with Bacillus cereus spores. Type of data set: cell-based.
Data set [1] in a line: Solubility of DPA in water. The class given is physicochemical.
Data set [2] has as its system Bacillus anthracis endospores.

We go through 6 molecules from US7713914B2 (priority 2005, dated 2010).

Each structure is given as a SMILES string.

As to `CC(O)C(=O)O` (stereo not shown) [lactic acid], in the data set on Bacillus cereus spores, the “SERS of DPA (CaDPA release at room temperature)” value (from here on “SERS of DPA”) is on record as “observed”. As for `O=C(O)C(F)(F)F` [trifluoroacetic acid], the “SERS of DPA” value in the data set on Bacillus cereus spores is listed as “observed”.

For `O=C(O)c1cccc(C(=O)O)n1` [DPA, dipicolinic acid], the Solubility in water entry in data set [1] is given as “only slightly soluble”. On to `CCCCCCCCCCCCN` [DDA, dodecylamine, reference compound], for which the “Exposure required before a reasonable DPA SERS signal was observed” value in the data set on Bacillus cereus spores stood at 1 h. Regarding `CC(=O)O` [glacial acetic acid, acetic acid], in data set [2] (Example 1, hypothetical 1000 spores, 50 microL, 1 minute), the “DPA concentration calculated from 1008 cm-1 peak” value is 20±10 ng per 1 mL. For the same molecule, in data set [2] (acid dispensed onto surface), the “Time in which most, if not all, of the CaDPA is released” value was 1 to 5 min. Take `O=CO` [formic acid]: in the data set with Bacillus cereus spores, the “SERS of DPA” value is “observed”.
